Experimental data as given in ChEMBL document CHEMBL1137777, “Design, synthesis, and evaluation of indolinones as triple angiokinase inhibitors and the discovery of a highly specific 6-methoxycarbonyl-substituted indolinone (BIBF 1120)” (J Med Chem, 2009).
Each block holds one compound with its values, some of them ahead of it.

Assays:
HUVEC = test: cells; details: Homo sapiens, 3 h
Description: Antiangiogenic activity in HUVEC assessed as inhibition of VEGF-induced cell proliferation by [3H]thymidine incorporation assay

[1] = biological target: Vascular endothelial growth factor receptor 2 (Homo sapiens, UniProt P35968); test: Inhibition of human VEGFR2 expressed in Sf9 cells
Vascular endothelial growth factor receptor 2, sequence (P35968 whole entry): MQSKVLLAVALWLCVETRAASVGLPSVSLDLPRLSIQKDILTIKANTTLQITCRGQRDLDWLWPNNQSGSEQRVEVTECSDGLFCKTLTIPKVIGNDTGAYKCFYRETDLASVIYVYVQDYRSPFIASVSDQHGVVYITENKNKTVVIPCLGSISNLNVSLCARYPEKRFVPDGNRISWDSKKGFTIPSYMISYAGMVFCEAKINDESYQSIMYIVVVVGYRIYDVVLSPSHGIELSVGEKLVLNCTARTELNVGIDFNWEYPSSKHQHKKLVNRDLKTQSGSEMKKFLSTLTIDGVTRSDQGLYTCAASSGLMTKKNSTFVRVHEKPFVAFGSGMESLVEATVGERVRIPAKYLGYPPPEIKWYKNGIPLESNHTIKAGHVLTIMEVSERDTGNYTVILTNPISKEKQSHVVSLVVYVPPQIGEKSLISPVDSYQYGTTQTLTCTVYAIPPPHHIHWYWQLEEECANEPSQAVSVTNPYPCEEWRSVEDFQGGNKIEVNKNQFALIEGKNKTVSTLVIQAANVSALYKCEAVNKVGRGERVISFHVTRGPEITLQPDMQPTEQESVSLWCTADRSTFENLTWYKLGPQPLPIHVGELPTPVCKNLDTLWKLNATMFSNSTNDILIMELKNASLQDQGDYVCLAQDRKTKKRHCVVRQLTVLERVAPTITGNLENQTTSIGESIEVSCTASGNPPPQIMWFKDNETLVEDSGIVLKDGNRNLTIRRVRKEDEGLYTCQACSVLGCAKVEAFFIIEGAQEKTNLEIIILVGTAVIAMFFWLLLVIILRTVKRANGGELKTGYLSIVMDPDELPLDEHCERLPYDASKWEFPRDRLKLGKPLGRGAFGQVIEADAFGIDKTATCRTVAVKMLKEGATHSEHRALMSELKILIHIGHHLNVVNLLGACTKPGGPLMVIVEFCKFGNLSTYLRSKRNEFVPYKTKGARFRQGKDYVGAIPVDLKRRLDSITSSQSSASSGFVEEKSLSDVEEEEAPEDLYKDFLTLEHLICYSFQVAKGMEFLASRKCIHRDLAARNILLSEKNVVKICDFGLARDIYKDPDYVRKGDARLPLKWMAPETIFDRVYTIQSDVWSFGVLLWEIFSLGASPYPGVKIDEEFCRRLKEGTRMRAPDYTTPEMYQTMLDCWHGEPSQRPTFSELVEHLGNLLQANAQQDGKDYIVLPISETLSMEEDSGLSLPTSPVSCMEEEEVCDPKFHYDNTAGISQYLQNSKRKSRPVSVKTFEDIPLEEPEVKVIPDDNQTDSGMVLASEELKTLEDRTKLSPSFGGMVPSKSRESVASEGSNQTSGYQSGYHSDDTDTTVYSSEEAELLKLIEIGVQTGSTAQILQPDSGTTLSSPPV

HeLa = test: Antiangiogenic activity against human HeLa cells assessed as inhibition of cell proliferation by [3H]thymidine incorporation assay; type: functional, cell-based
[2] = biological target: Receptor tyrosine-protein kinase erbB-2 (Homo sapiens, UniProt P04626); test: Inhibition of human HER2
[3] = biological target: Vascular endothelial growth factor receptor 1 (Homo sapiens, UniProt P17948)
Description: Inhibition of human VEGFR1

[4] = biological target: Cyclin-dependent kinase 1 (Homo sapiens, UniProt P06493); test: Inhibition of human CDK1
Cyclin-dependent kinase 1, sequence (P06493 whole entry): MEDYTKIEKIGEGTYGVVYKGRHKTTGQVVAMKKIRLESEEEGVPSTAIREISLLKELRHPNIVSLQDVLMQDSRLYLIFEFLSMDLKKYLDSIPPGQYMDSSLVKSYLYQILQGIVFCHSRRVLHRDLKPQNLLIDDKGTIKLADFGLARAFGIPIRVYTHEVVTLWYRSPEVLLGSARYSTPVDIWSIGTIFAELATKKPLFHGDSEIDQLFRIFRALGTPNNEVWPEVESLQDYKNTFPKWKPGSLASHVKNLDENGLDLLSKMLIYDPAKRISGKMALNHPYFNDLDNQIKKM

[5] = biological target: Insulin-like growth factor 1 receptor (Homo sapiens, UniProt P08069); test: Inhibition of human IGFR1
FaDu [6] = test: Antitumor activity against human FADU cells xenografted NMRI nu/nu mouse assessed as inhibition of mean tumor volume growth at 50 mg/kg, po qd after 21 days relative to control; type: functional
[7] = Plasma concentration in NMRI nu/nu mouse at 40 mg/kg, po administered as single dose after 2 hrs; type: ADME, organism-based; set-up: dose 40 mg/kg, route oral
[8] = biological target: Fibroblast growth factor receptor 1 (Homo sapiens, UniProt P11362)
Description: Inhibition of human FGFR1

Insulin receptor = Insulin receptor (Homo sapiens, UniProt P06213); test: Inhibition of human InsR
Insulin receptor, sequence (P06213 28-758 limits assumed): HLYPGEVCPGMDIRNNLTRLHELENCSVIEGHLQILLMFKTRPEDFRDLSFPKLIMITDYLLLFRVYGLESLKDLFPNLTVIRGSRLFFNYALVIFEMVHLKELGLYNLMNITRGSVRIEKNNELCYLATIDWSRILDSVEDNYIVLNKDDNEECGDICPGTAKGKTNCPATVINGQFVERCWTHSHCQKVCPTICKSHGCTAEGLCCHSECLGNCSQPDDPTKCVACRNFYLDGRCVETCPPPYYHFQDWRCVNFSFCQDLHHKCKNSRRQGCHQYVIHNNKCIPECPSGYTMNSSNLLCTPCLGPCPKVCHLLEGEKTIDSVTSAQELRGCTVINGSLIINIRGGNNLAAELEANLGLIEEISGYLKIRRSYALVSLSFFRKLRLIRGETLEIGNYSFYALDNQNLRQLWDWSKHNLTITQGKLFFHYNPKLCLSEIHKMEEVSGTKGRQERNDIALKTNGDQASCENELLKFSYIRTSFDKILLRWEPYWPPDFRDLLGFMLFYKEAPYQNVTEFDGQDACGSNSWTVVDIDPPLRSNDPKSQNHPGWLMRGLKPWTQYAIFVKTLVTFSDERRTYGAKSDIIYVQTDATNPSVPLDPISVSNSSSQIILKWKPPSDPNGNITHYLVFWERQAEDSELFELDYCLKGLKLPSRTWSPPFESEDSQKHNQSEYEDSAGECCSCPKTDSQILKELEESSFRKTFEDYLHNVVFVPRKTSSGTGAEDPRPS
Insulin receptor, sequence (P06213 763-1382 limits assumed): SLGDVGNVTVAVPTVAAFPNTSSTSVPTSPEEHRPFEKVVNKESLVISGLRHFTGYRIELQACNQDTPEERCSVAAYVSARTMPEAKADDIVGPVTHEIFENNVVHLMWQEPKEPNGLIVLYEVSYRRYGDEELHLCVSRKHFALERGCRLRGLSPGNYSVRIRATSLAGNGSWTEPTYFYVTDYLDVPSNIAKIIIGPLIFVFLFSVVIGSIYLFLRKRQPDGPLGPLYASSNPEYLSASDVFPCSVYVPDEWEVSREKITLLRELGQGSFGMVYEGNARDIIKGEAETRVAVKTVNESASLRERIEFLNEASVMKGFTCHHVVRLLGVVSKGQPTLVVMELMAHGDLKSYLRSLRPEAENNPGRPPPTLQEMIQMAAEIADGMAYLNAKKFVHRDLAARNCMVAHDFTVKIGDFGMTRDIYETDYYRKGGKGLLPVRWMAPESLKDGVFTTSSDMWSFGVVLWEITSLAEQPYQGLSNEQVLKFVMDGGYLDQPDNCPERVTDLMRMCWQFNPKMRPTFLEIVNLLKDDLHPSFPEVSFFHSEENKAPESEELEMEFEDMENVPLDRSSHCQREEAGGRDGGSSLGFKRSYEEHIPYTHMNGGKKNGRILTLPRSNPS

FaDu [9] = test: Antiangiogenic activity against human FADU cells assessed as inhibition of cell proliferation by [3H]thymidine incorporation assay; type: functional, cell-based
FaDu [10] = test: Antitumor activity against human FADU cells xenografted NMRI nu/nu mouse assessed as inhibition of mean tumor volume growth at 100 mg/kg, po qd after 21 days relative to control; type: functional
[11] = biological target: Cyclin-dependent kinase 4 (Homo sapiens, UniProt P11802); test: Inhibition of human CDK4
Cyclin-dependent kinase 4, sequence (P11802 whole entry): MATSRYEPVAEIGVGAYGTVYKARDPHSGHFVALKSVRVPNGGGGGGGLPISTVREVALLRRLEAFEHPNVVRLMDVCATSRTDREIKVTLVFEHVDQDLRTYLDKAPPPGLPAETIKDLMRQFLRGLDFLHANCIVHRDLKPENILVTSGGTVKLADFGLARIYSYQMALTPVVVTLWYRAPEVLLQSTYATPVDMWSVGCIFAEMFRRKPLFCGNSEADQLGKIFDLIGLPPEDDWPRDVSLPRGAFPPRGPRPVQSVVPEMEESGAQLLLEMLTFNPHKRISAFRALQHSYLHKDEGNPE

Calu-6 [12] = test: Antiangiogenic activity against human Calu6 cells assessed as inhibition of cell proliferation by [3H]thymidine incorporation assay; type: functional, cell-based
[13] = biological target: Serine/threonine-protein kinase PLK1 (Homo sapiens, UniProt P53350); test: Inhibition of human Plk1
Serine/threonine-protein kinase PLK1, sequence (P53350 whole entry): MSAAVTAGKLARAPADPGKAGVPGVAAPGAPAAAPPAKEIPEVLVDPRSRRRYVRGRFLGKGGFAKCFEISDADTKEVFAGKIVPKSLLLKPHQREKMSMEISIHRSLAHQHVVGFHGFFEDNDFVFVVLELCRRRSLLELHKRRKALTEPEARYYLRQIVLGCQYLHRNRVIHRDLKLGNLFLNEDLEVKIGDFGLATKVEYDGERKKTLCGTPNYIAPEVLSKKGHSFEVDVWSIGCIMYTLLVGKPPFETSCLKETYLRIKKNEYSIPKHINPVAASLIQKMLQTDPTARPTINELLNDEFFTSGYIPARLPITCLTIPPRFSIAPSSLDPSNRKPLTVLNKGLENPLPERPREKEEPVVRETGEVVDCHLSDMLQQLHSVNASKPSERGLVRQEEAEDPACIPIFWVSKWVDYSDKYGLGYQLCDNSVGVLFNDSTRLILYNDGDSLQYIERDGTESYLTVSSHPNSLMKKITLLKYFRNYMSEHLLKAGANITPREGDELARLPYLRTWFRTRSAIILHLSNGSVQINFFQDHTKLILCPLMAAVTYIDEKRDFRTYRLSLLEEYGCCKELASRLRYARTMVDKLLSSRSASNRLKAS

[14] = biological target: Platelet-derived growth factor receptor alpha (Homo sapiens, UniProt P16234)
Platelet-derived growth factor receptor alpha, sequence (P16234 whole entry): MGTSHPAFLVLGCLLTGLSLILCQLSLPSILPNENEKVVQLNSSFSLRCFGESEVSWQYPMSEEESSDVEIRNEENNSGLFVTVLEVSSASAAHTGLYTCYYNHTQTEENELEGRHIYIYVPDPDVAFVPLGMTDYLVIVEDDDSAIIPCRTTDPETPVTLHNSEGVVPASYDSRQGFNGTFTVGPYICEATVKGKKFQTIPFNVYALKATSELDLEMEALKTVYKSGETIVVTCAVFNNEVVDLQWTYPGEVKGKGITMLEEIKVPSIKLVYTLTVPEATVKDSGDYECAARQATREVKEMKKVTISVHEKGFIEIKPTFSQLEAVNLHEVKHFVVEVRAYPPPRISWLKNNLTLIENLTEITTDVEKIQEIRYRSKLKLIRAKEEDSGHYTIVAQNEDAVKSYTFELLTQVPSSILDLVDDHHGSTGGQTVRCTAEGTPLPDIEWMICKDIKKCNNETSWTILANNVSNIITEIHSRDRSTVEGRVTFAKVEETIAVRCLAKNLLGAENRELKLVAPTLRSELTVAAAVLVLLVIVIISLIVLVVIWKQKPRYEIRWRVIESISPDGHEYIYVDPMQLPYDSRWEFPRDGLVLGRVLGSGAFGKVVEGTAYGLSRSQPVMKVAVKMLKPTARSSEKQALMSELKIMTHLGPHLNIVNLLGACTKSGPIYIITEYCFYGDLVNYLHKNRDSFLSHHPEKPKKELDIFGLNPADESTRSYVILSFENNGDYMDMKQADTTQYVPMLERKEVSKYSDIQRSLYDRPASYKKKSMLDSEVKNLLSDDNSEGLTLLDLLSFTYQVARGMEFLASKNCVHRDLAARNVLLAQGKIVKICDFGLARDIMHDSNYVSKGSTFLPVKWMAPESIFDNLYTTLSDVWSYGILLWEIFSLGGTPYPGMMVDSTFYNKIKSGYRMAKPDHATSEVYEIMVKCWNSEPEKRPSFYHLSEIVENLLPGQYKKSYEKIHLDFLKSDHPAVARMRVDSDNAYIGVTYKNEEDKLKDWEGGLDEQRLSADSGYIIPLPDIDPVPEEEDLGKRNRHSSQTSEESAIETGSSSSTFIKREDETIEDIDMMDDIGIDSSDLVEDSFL
Description: Inhibition of human PDGFRalpha

FaDu [15] = test: Antitumor activity against human FADU cells xenografted NMRI nu/nu mouse assessed as inhibition of mean tumor volume growth at 50 mg/kg, po bid after 21 days relative to control; type: functional
[16] = Plasma concentration in NMRI nu/nu mouse at 40 mg/kg, po administered as single dose after 24 hrs; type: ADME, organism-based; set-up: dose 40 mg/kg, route oral
[17] = biological target: Epidermal growth factor receptor (Homo sapiens, UniProt P00533); test: Inhibition of human EGFR
[18] = biological target: Vascular endothelial growth factor receptor 3 (Homo sapiens, UniProt P35916)
Description: Inhibition of human VEGFR3

SK-OV-3 = test: Antitumor activity against human SKOV3 cells xenografted NMRI nu/nu mouse assessed as inhibition of mean tumor volume growth at 50 mg/kg, po qd after 21 days relative to control; type: functional
HT-29 = test: Antitumor activity against human HT-29 cells xenografted NMRI nu/nu mouse assessed as inhibition of mean tumor volume growth at 100 mg/kg, po qd after 21 days relative to control; type: functional
FaDu [19] = test: Antitumor activity against human FADU cells xenografted NMRI nu/nu mouse assessed as inhibition of mean tumor volume growth at 10 mg/kg, po qd after 21 days relative to control; type: functional
[20] = Volume of distribution in NMRI nu/nu mouse at 50 mg/kg, po or 10 mg/kg, iv administered as single dose; type: ADME, organism-based; details: in vivo
CAKI-1 [21] = test: Antitumor activity against human Caki1 cells xenografted NMRI nu/nu mouse assessed as inhibition of mean tumor volume growth at 50 mg/kg, po qd after 21 days relative to control; type: functional
Calu-6 [22] = test: Antitumor activity against human Calu6 cells xenografted NMRI nu/nu mouse assessed as inhibition of mean tumor volume growth at 50 mg/kg, po qd after 21 days relative to control; type: functional
[23] = Half life in NMRI nu/nu mouse at 50 mg/kg, po administered as single dose; type: ADME, organism-based; set-up: dose 50 mg/kg, route oral; details: in vivo
FaDu [24] = test: Antitumor activity against human FADU cells xenografted NMRI nu/nu mouse assessed as inhibition of mean tumor volume growth at 25 mg/kg, po qd after 21 days relative to control; type: functional
CAKI-1 [25] = test: Antitumor activity against human Caki1 cells xenografted NMRI nu/nu mouse assessed as inhibition of mean tumor volume growth at 100 mg/kg, po qd after 21 days relative to control; type: functional
[26] = Antitumor activity against human PAC120 cells xenografted NMRI nu/nu mouse assessed as inhibition of mean tumor volume growth at 100 mg/kg, po qd after 21 days relative to control; type: functional
[27] = Cmax in NMRI nu/nu mouse at 50 mg/kg, po administered as single dose; type: ADME, organism-based; set-up: dose 50 mg/kg, route oral; details: in vivo
[28] = Oral bioavailability in NMRI nu/nu mouse at 50 mg/kg administered as single dose; type: ADME, organism-based; details: in vivo
[29] = Plasma concentration in NMRI nu/nu mouse at 50 mg/kg, po administered as single dose after 24 hrs; type: ADME, organism-based; set-up: dose 50 mg/kg, route oral
Mus musculus = test: AUC in NMRI nu/nu mouse at 50 mg/kg, po administered as single dose; type: ADME, organism-based, Plasma; set-up: dose 50 mg/kg, route oral; details: in vivo
CAKI-1 [30] = test: Antitumor activity against human Caki1 cells xenografted NMRI nu/nu mouse assessed as inhibition of mean tumor volume growth at 10 mg/kg, po qd after 21 days relative to control; type: functional
[31] = Clearance in NMRI nu/nu mouse at 50 mg/kg, po or 10 mg/kg, iv administered as single dose; type: ADME, organism-based; details: in vivo
[32] = Plasma concentration in NMRI nu/nu mouse at 50 mg/kg, po administered as single dose after 2 hrs; type: ADME, organism-based; set-up: dose 50 mg/kg, route oral

Compound: CC(=O)c1ccc2c(c1)NC(=O)/C2=C(\Nc1ccc(CN2CCCCC2)cc1)c1ccccc1
IC50 [1]: 1750 nM

Compound: O=C1Nc2ccccc2/C1=C(/Nc1ccc(CN2CCCCC2)cc1)c1ccccc1
IC50 [1]: 2110 nM

Compound: O=C1Nc2cc(C(=O)O)ccc2/C1=C(/Nc1ccc(CN2CCCCC2)cc1)c1ccccc1
IC50 [1]: > 1000 nM

Compound: N#Cc1ccc2c(c1)NC(=O)/C2=C(\Nc1ccc(CN2CCCCC2)cc1)c1ccccc1
EC50 (HUVEC): 281 nM
IC50 [1]: 248 nM

Compound: O=C1Nc2cc(Cl)ccc2/C1=C(/Nc1ccc(CN2CCCCC2)cc1)c1ccccc1
EC50 (HUVEC): 49 nM
IC50 [1]: 129 nM

Compound: COC(=O)c1ccc2c(c1)NC(=O)/C2=C(\Nc1ccc(N(C)S(C)(=O)=O)cc1)c1ccccc1
IC50 [1]: 150 nM

Compound: COC(=O)c1ccc2c(c1)NC(=O)/C2=C(\Nc1ccccc1)c1ccccc1
IC50 [1]: 8000 nM

Compound: CC(C)NC(=O)c1ccc2c(c1)NC(=O)/C2=C(\Nc1ccc(CN2CCCCC2)cc1)c1ccccc1
EC50 (HUVEC): 1070 nM
IC50 [1]: 1230 nM

Compound: COC(=O)c1ccc2c(c1)NC(=O)/C2=C(\Nc1ccc(CN(C)C(=O)N(C)C)cc1)c1ccccc1
IC50 [2]: > 10000 nM
IC50 [3]: 82 nM
IC50 [4]: > 10000 nM
IC50 [5]: > 10000 nM
T/C (FaDu [6]): 31%
concentration at 2 h [7]: 1250 nM
IC50 [8]: 50 nM
IC50 (Insulin receptor): > 10000 nM
EC50 (FaDu [9]): > 1000 nM
T/C (FaDu [10]): 13%
IC50 [11]: > 10000 nM
EC50 (Calu-6 [12]): > 1000 nM
IC50 [13]: > 10000 nM
IC50 [14]: 20 nM
T/C (FaDu [15]): 11%
concentration at 24 h [16]: 16 nM
IC50 [17]: > 10000 nM
IC50 (HUVEC): 22 nM
IC50 [1]: 61 nM
IC50 [18]: 10 nM
EC50 (HeLa): > 1000 nM

Compound: CCOC(=O)c1ccc2c(c1)NC(=O)/C2=C(\Nc1ccc(CN2CCCCC2)cc1)c1ccccc1
EC50 (HUVEC): 47 nM
IC50 [1]: 109 nM
EC50 (HeLa): > 1000 nM

Compound: COC(=O)c1ccc2c(c1)NC(=O)/C2=C(\Nc1ccc(N(C)C(=O)CN2CCN(C)CC2)cc1)c1ccccc1 [NINTEDANIB]
T/C (SK-OV-3): 19%
T/C (HT-29): 16%
T/C (FaDu [19]): 82%
Vd [20]: 32 L/kg
T/C (CAKI-1 [21]): 25%
T/C (FaDu [6]): 14%
T/C (Calu-6 [22]): 24%
half-life [23]: 5 h
T/C (FaDu [24]): 46%
T/C (CAKI-1 [25]): 16%
T/C [26]: 34%
Cmax [27]: 1090 nM
EC50 (FaDu [9]): > 1000 nM
T/C (FaDu [10]): 11%
bioavailability [28]: 45%
EC50 (Calu-6 [12]): > 1000 nM
IC50 [13]: > 10000 nM
concentration at 24 h [29]: 8 nM
T/C (FaDu [15]): 15%
AUC (Mus musculus): 2.75 µM·h
T/C (CAKI-1 [30]): 71%
clearance [31]: 173 mL/min/kg
concentration at 2 h [32]: 923 nM
IC50 (HUVEC): 10 nM
EC50 (HeLa): > 1000 nM

Further lines, with some results ahead:

IC50 [1]: 12 nM
Compound: COC(=O)c1ccc2c(c1)NC(=O)/C2=C(\Nc1ccc(N(CCN(C)C)C(C)=O)cc1)c1ccccc1
EC50 (HUVEC): 15 nM

IC50 [1]: 23 nM
Compound: COC(=O)c1ccc2c(c1)NC(=O)/C2=C(\Nc1ccc(N(CCN(C)C)S(C)(=O)=O)cc1)c1ccccc1
EC50 (HUVEC): 14 nM

IC50 [1]: 7 nM
EC50 (HeLa): > 1000 nM
Compound: O=C1Nc2cc([N+](=O)[O-])ccc2/C1=C(/Nc1ccc(CN2CCCCC2)cc1)c1ccccc1
EC50 (HUVEC): 60 nM

IC50 [1]: 6 nM
Compound: COC(=O)c1ccc2c(c1)NC(=O)/C2=C(\Nc1ccc(N(C)C(=O)Cn2ccnc2)cc1)c1ccccc1
EC50 (HUVEC): 52 nM

IC50 [1]: 24 nM
Compound: COC(=O)c1ccc2c(c1)NC(=O)/C2=C(\Nc1ccc(C(=O)N(C)CCN(C)C)cc1)c1ccccc1
EC50 (HUVEC): 25 nM

IC50 [1]: 9 nM
Compound: COC(=O)c1ccc2c(c1)NC(=O)/C2=C(\Nc1ccc(N(CCCN(C)C)C(C)=O)cc1)c1ccccc1
EC50 (HUVEC): 15 nM
